Patent publication US20240199558A1, “2,4,6-TRISUBSTITUTED 1,3,5-TRIAZINES AS MODULATORS OF CX3CR1” (ASTRAZENECA AB, priority 2022, published 2024)

Molecular target: CX3CR1 (Homo sapiens (Human), UniProt P49238)
Assay: hCX3CR1 [3H]-AZD8797 competitive binding assay (filter)
Conditions: CHO-hCX3CR1 membranes, 2 nM [3H]-AZD8797
Procedure, shortened: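 CHO-hCX3CR1 membranes (9 μg/well) were incubated 2 h at room temperature with 2 nM [3H]-AZD8797 and varying competitor concentrations. Buffer: 25 mM HEPES pH 7.4, 10 mM MgCl2, 1 mM CaCl2, 0.5% BSA, 1% DMSO. Bound ligand was collected by vacuum filtration, washed in ice-cold buffer with 500 mM NaCl, and counted by scintillation.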

Chain of CX3CR1 (P49238 whole entry): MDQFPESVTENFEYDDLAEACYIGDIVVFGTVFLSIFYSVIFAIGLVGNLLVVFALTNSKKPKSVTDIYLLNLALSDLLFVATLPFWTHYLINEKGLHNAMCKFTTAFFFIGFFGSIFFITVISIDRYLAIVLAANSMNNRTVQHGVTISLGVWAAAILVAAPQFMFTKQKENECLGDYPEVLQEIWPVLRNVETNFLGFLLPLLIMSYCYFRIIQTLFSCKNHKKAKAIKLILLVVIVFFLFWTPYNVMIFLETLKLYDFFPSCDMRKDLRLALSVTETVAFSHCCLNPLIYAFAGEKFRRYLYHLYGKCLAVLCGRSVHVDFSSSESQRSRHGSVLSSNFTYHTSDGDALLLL

Row | SMILES | IC50 [nM]
1 | CC(C)C[C@H](CO)Nc1nc(CC(C)c2c[nH]c3ncccc23)nc(NS(C)(=O)=O)n1 (stereo partly drawn) [Example 93, N-(4-(2-(1H-Pyrrolo[2,3-b]pyridin-3-yl)propyl)-6-(((R)-1-hydroxy-4-methylpentan-2-yl)amino)-1,3,5-triazin-2-yl)methanesulfonamide] | 209
2 | CC(C)C[C@H](CO)Nc1nc(C[C@H](C)c2c(F)cc(F)cc2F)nc(NS(C)(=O)=O)n1 (single isomer, unassigned) [Example 39, N-(4-(((R)-1-Hydroxy-4-methylpentan-2-yl)amino)-6-((S*)-2-(2,4,6-trifluorophenyl)propyl)-1,3,5-triazin-2-yl)methanesulfonamide] | > 10000
3 | CC(C)C[C@H](CO)Nc1nc(CC(C)c2ccc(OCCN3CCOCC3)cc2)nc(NS(C)(=O)=O)n1 (stereo partly drawn) [Example 115, N-(4-(((R)-1-Hydroxy-4-methylpentan-2-yl)amino)-6-(2-(4-(2-morpholinoethoxy)phenyl)propyl)-1,3,5-triazin-2-yl)methanesulfonamide] | 160
4 | CC(C)C[C@H](CO)Nc1nc(CC(C)c2ccc(CN3CCOCC3)cc2)nc(NS(C)(=O)=O)n1 (stereo partly drawn) [Example 95, N-(4-(((R)-1-Hydroxy-4-methylpentan-2-yl)amino)-6-(2-(4-(morpholinomethyl)phenyl)propyl)-1,3,5-triazin-2-yl)methanesulfonamide] | 657
5 | CCC(Cc1nc(N[C@@H](CO)CC(C)C)nc(NS(C)(=O)=O)n1)c1cnc(OC)cc1F (stereo partly drawn) [Example 49, N-(4-(2-(4-Fluoro-6-methoxypyridin-3-yl)butyl)-6-(((R)-1-hydroxy-4-methylpentan-2-yl)amino)-1,3,5-triazin-2-yl)methanesulfonamide] | 474

Second part, the compound after the results:

Row | IC50 [nM] | SMILES
6 | 241 | CC(C)C[C@H](CO)Nc1nc(CC(C)c2ccc3c(c2)CC(=O)N(C)C3)nc(NS(C)(=O)=O)n1 (stereo partly drawn) [Example 128, N-(4-(((R)-1-Hydroxy-4-methylpentan-2-yl)amino)-6-(2-(2-methyl-3-oxo-1,2,3,4-tetrahydroisoquinolin-6-yl)propyl)-1,3,5-triazin-2-yl)methanesulfonamide]
7 | 548 | CC(C)C[C@H](CO)Nc1nc(C[C@H](C)c2cc(F)ccc2F)nc(NS(C)(=O)=O)n1 (single isomer, unassigned) [Example 23, N-(4-((S*)-2-(2,5-Difluorophenyl)propyl)-6-(((R)-1-hydroxy-4-methylpentan-2-yl)amino)-1,3,5-triazin-2-yl)methanesulfonamide]
8 | 7560 | CC(C)C[C@H](CO)Nc1nc(C[C@H](C)c2cc(F)c(Cl)c(F)c2)nc(NS(C)(=O)=O)n1 (single isomer, unassigned) [Example 32, N-(4-((S*)-2-(4-Chloro-3,5-difluorophenyl)propyl)-6-(((R)-1-hydroxy-4-methylpentan-2-yl)amino)-1,3,5-triazin-2-yl)methanesulfonamide]
9 | 542 | CC(C)C[C@H](CO)Nc1nc(CC(C)c2cccc(CN3OCCC3=O)c2)nc(NS(C)(=O)=O)n1 (stereo partly drawn) [Example 101, N-(4-(((R)-1-Hydroxy-4-methylpentan-2-yl)amino)-6-(2-(3-((3-oxoisoxazolidin-2-yl)methyl)phenyl)propyl)-1,3,5-triazin-2-yl)methanesulfonamide]
10 | 102 | Cc1cc(C(C)Cc2nc(N[C@@H](CO)CC(C)C)nc(NS(C)(=O)=O)n2)ccn1 (stereo partly drawn) [Example 94, N-(4-(((R)-1-Hydroxy-4-methylpentan-2-yl)amino)-6-(2-(2-methylpyridin-4-yl)propyl)-1,3,5-triazin-2-yl)methanesulfonamide]
11 | 350 | COc1c(F)cccc1C(C)Cc1nc(N[C@@H](CO)CC(C)C)nc(NS(C)(=O)=O)n1 (stereo partly drawn) [Example 160, N-(4-(2-(3-Fluoro-2-methoxyphenyl)propyl)-6-(((R)-1-hydroxy-4-methylpentan-2-yl)amino)-1,3,5-triazin-2-yl)methanesulfonamide]
